Among the test systems are SK-MEL-5 melanoma; EKVX NSCLC; TK-10 renal; UO-31 renal; COLO 205 colon; UACC-62 melanoma; M14 melanoma; RXF 393 renal; MOLT-4 leukemia.
Common to all, as to experiment: DTP human tumour cell line panel, 48 h

Each structure is given as a SMILES string.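 Exposure lasted 48 hours, with cells grown in 96-well plates and compounds tested at five concentrations. Here, GI50 denotes the concentration required for 50% inhibition of growth. TGI denotes the concentration required for complete inhibition of growth.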

For the molecule `C[CH2][Ge]([CH2]C)([CH2]C)[O]C(=O)C(OC(C)=O)c1ccccc1` (configuration not stated), the GI50 is 71.6 µM in the assay with SK-MEL-5 melanoma; 38.3 µM with EKVX NSCLC; more than 100 µM with TK-10 renal; more than 100 µM in the assay on UO-31 renal; more than 100 µM in the assay on COLO 205 colon; more than 100 µM with UACC-62 melanoma. Moreover, the GI50 with M14 melanoma is more than 100 µM. The TGI in the assay on SK-MEL-5 melanoma, in the assay on EKVX NSCLC, in the assay with TK-10 renal, with UO-31 renal, in the assay on COLO 205 colon and in the assay on UACC-62 melanoma was more than 100 µM each time. Moreover, in the assay on M14 melanoma, the TGI was more than 100 µM.
Consider `COc1ccc2c3c([nH]c2c1[N+](=O)[O-])C(C)N(Cc1ccccc1)CC3` (configuration not stated), for which the TGI with EKVX NSCLC is more than 100 µM; in the assay with RXF 393 renal it was 17.9 µM; in the assay on TK-10 renal, more than 100 µM; with UO-31 renal, more than 100 µM; in the assay with MOLT-4 leukemia, 23.4 µM; with COLO 205 colon, more than 100 µM. For the same molecule, the total growth inhibition concentration (TGI) with UACC-62 melanoma is more than 100 µM; with M14 melanoma it was 28.1 µM.
For the molecule `CC1=C(/C=C/C(C)=C/C2CC(N(C)C)=CC(=O)O2)C(C)(C)CCC1` (configuration not stated), the concentration for total growth inhibition (TGI) is 19.6 µM in the assay with SK-MEL-5 melanoma; 27.9 µM in the assay with EKVX NSCLC; 31.1 µM with RXF 393 renal; 27.5 µM in the assay with TK-10 renal; 22.7 µM in the assay with UO-31 renal; 19.9 µM in the assay on MOLT-4 leukemia. The TGI in the assay with COLO 205 colon was found to be 27.2 µM; in the assay on UACC-62 melanoma, 27 µM; in the assay with M14 melanoma, 28.3 µM.
With `ClC/C=C/COC1CCCCO1` (configuration not stated), the concentration for total growth inhibition (TGI) is more than 100 µM in the assay on SK-MEL-5 melanoma; more than 100 µM in the assay with EKVX NSCLC; more than 100 µM with RXF 393 renal; more than 100 µM in the assay with TK-10 renal; more than 100 µM in the assay with UO-31 renal; 97 µM in the assay on MOLT-4 leukemia. Also, the total growth inhibition concentration (TGI) with COLO 205 colon, in the assay with UACC-62 melanoma and with M14 melanoma was more than 100 µM in each case.
Take `CN(c1ccc(C(=O)c2ccc(N(C)S(C)(=O)=O)cc2)cc1)S(C)(=O)=O`: the TGI is 78.4 µM in the assay with SK-MEL-5 melanoma; more than 100 µM with EKVX NSCLC; more than 100 µM in the assay on TK-10 renal; more than 100 µM in the assay on UO-31 renal; more than 100 µM in the assay on MOLT-4 leukemia; more than 100 µM in the assay with COLO 205 colon. The total growth inhibition concentration (TGI) in the assay on UACC-62 melanoma was more than 100 µM.
`COc1ccc(CN2c3ccccc3Sc3ccccc32)c(C(F)(F)F)c1`: the GI50 with SK-MEL-5 melanoma was 0.5 µM; in the assay on EKVX NSCLC it was 1.2 µM; in the assay on RXF 393 renal, 0.38 µM; in the assay on TK-10 renal, 5.82 µM; in the assay with UO-31 renal, 3.98 µM; in the assay on MOLT-4 leukemia it was 2.88 µM. In addition, the figures for the GI50 with COLO 205 colon, with UACC-62 melanoma and in the assay with M14 melanoma were 0.64 µM, 0.917 µM and 0.446 µM, respectively. Besides, the TGI in the assay with SK-MEL-5 melanoma was 15.7 µM; with EKVX NSCLC, more than 100 µM; with RXF 393 renal it was 6.55 µM; with TK-10 renal it was more than 100 µM; with UO-31 renal, more than 100 µM; in the assay on MOLT-4 leukemia, 43.4 µM. In addition, the total growth inhibition concentration (TGI) in the assay with COLO 205 colon was 3.08 µM; in the assay on UACC-62 melanoma it was more than 100 µM; with M14 melanoma it was more than 100 µM.
As for `c1ccc2c3c([nH]c2c1)[C@H]1C2CCCCN2CN1CC3` (some centres not stated), the TGI in the assay on SK-MEL-5 melanoma, in the assay with EKVX NSCLC, in the assay on RXF 393 renal, in the assay with TK-10 renal, in the assay on UO-31 renal and in the assay on MOLT-4 leukemia was more than 100 µM throughout. The TGI with COLO 205 colon, with UACC-62 melanoma and in the assay on M14 melanoma was more than 100 µM each time.
For `Cc1cccc(C)c1NC(=O)C1=NC(=S)NC(c2ccccc2)C1c1nc2ccccc2s1` (configuration not stated), the TGI in the assay with SK-MEL-5 melanoma, in the assay with EKVX NSCLC, with RXF 393 renal, in the assay with TK-10 renal, with UO-31 renal and in the assay with MOLT-4 leukemia was more than 100 µM throughout. The TGI in the assay with COLO 205 colon, with UACC-62 melanoma and in the assay with M14 melanoma was more than 100 µM each time.
For `CC(=O)[O-].Cn1ccnc1CNCc1nccn1C.[Cu+2].[O-][Cl+3]([O-])([O-])[O-]`, the GI50 in the assay with SK-MEL-5 melanoma, with EKVX NSCLC, in the assay on RXF 393 renal, in the assay with TK-10 renal, with MOLT-4 leukemia and in the assay on COLO 205 colon was more than 100 µM each time. Further, the GI50 was 26.9 µM with UACC-62 melanoma and more than 100 µM in the assay on M14 melanoma. Besides, the concentration for total growth inhibition (TGI) with SK-MEL-5 melanoma, with EKVX NSCLC, with RXF 393 renal, with TK-10 renal, with MOLT-4 leukemia and with COLO 205 colon was more than 100 µM in each case. The TGI with UACC-62 melanoma and with M14 melanoma was more than 100 µM each time.
Consider `O=C([CH-]C(=O)c1ccccc1)c1ccccc1.[CH-]1CCCCC1.[CH-]1CCCCC1.[CH-]1CCCCC1.[Sn+4]`, for which the GI50 in the assay with SK-MEL-5 melanoma was 6.58 µM; in the assay with EKVX NSCLC it was 10.7 µM; in the assay on RXF 393 renal it was 2.71 µM; in the assay on TK-10 renal it was 12.1 µM; with UO-31 renal it was 12.5 µM; in the assay with MOLT-4 leukemia, 2.41 µM. Also, the results for the GI50 in the assay with COLO 205 colon, in the assay on UACC-62 melanoma and with M14 melanoma were 4.15 µM, 4.34 µM and 8.3 µM, respectively. Moreover, the concentration for total growth inhibition (TGI) in the assay with SK-MEL-5 melanoma was found to be 19.1 µM; in the assay on EKVX NSCLC it was 32.6 µM; with RXF 393 renal, 10.1 µM; in the assay on TK-10 renal, 26.1 µM; in the assay on UO-31 renal, 25 µM; with MOLT-4 leukemia, 7.47 µM. Further, the total growth inhibition concentration (TGI) with COLO 205 colon was determined as 16.2 µM; in the assay on UACC-62 melanoma it was 15.6 µM; with M14 melanoma, 22.4 µM.
`O=c1[nH]c2ccccc2nc1/C=C(\O)c1ccccc1O`: the TGI in the assay on SK-MEL-5 melanoma, in the assay on EKVX NSCLC, in the assay on RXF 393 renal, with TK-10 renal, with UO-31 renal and in the assay with MOLT-4 leukemia was more than 100 µM in each case. Besides, the TGI with COLO 205 colon, with UACC-62 melanoma and with M14 melanoma was more than 100 µM in each case.
In the case of `CCc1cccc(C)c1NC(=O)C(=O)CC(=O)c1ccc(Cl)s1`, the total growth inhibition concentration (TGI) in the assay with EKVX NSCLC, in the assay with TK-10 renal, in the assay with UO-31 renal, with MOLT-4 leukemia, in the assay on UACC-62 melanoma and in the assay on M14 melanoma was more than 100 µM throughout.
In the case of `CCCCCCCCCCCCCC[N+](C)(C)CCCCCCCCCCCCCC`, the GI50 in the assay with RXF 393 renal was 1.28 µM; in the assay with TK-10 renal it was 2.53 µM; in the assay on UO-31 renal it was 4.44 µM; with MOLT-4 leukemia, 2.41 µM; with UACC-62 melanoma, 1.89 µM. In addition, the TGI was 2.78 µM in the assay on RXF 393 renal; 7.03 µM in the assay on TK-10 renal; more than 100 µM in the assay on UO-31 renal; 6.44 µM with MOLT-4 leukemia; 5.7 µM with UACC-62 melanoma.

As usually defined, the GI50 is the concentration that inhibits growth by half. Broadly, the TGI is the concentration giving total growth inhibition. High values mean less potent growth arrest, low ones more potent growth arrest.

These data come from PubChem BioAssay (NCI).
